Measurements as given in ChEMBL document CHEMBL1201862, “PubChem BioAssay data set” (2004).
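All cell lines were grown in 96-well plates and treated with compound for 48 hours. Here, GI50 denotes the concentration required for 50% inhibition of growth.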 Activity calls are given as the source filed them. Rule as the data show it: active = GI50 up to about 1.1 µM and inactive = higher.

Tests used:
Assay in all cases: DTP human tumour cell line panel, 48 h
CCRF-CEM = test system: CCRF-CEM
PC-3 = test system: PC-3
DU-145 = test system: DU-145
K562 = test system: K562
A498 = test system: A498
NCI-H23 = test system: NCI-H23
786-0 = test system: 786-0
HT-29 = test system: HT-29
HCT-116 = test system: HCT-116
BT-549 = test system: BT-549
SF-268 = test system: SF-268
HL-60 = test system: HL-60
NCI-H460 = test system: NCI-H460
SF-539 = test system: SF-539
IGROV-1 = test system: IGROV-1
SW-620 = test system: SW-620
OVCAR-5 = test system: OVCAR-5
SNB-19 = test system: SNB-19
MDA-N = test system: MDA-N
SNB-75 = test system: SNB-75
A549 = test system: A549
OVCAR-4 = test system: OVCAR-4
SF-295 = test system: SF-295
RPMI-8226 = test system: RPMI-8226
OVCAR-8 = test system: OVCAR-8
SR = test system: SR
Hs-578T = test system: Hs-578T
NCI-H226 = test system: NCI-H226
T47D = test system: T47D
NCI-H522 = test system: NCI-H522
SK-MEL-5 = test system: SK-MEL-5
MCF7 = test system: MCF7
UO-31 = test system: UO-31
ACHN = test system: ACHN
CAKI-1 = test system: CAKI-1
U-251 = test system: U-251
HCT-15 = test system: HCT-15
KM12 = test system: KM12
OVCAR-3 = test system: OVCAR-3
M14 = test system: M14
Malme-3M = test system: Malme-3M
MDA-MB-231 = test system: MDA-MB-231
SK-MEL-28 = test system: SK-MEL-28
MDA-MB-435 = test system: MDA-MB-435
SN12C = test system: SN12C
UACC-257 = test system: UACC-257
HOP-62 = test system: HOP-62
EKVX = test system: EKVX
HCC 2998 = test system: HCC 2998
TK-10 = test system: TK-10
UACC-62 = test system: UACC-62
LOX IMVI = test system: LOX IMVI
COLO 205 = test system: COLO 205
RXF 393 = test system: RXF 393
MOLT-4 = test system: MOLT-4
NCI/ADR-RES = test system: NCI/ADR-RES
SK-MEL-2 = test system: SK-MEL-2
SK-OV-3 = test system: SK-OV-3
HOP-92 = test system: HOP-92

Nc1ccc(Cc2ccc(/N=C\c3ccc(OCc4cccc(COc5ccc(/C=N\c6ccc(Cc7ccc(N)cc7)cc6)cc5)n4)cc3)cc2)cc1
GI50 (CCRF-CEM): > 100 µM (inactive)
GI50 (PC-3): > 100 µM (inactive)
GI50 (DU-145): > 100 µM (inactive)
GI50 (K562): > 100 µM (inactive)
GI50 (A498): 61.5 µM (inactive)
GI50 (NCI-H23): 99.1 µM (inactive)
GI50 (786-0): 65.9 µM (inactive)
GI50 (HT-29): > 100 µM (inactive)
GI50 (HCT-116): > 100 µM (inactive)
GI50 (BT-549): > 100 µM (inactive)
GI50 (SF-268): 45.2 µM (inactive)
GI50 (HL-60): > 100 µM (inactive)
GI50 (NCI-H460): > 100 µM (inactive)
GI50 (SF-539): 4.29 µM (inactive)
GI50 (IGROV-1): > 100 µM (inactive)
GI50 (SW-620): > 100 µM (inactive)
GI50 (OVCAR-5): > 100 µM (inactive)
GI50 (SNB-19): 41.7 µM (inactive)
GI50 (MDA-N): > 100 µM (inactive)
GI50 (SNB-75): 13.2 µM (inactive)
GI50 (A549): > 100 µM (inactive)
GI50 (OVCAR-4): 85.1 µM (inactive)
GI50 (SF-295): 50.1 µM (inactive)
GI50 (RPMI-8226): > 100 µM (inactive)
GI50 (OVCAR-8): 62.8 µM (inactive)
GI50 (SR): > 100 µM (inactive)
GI50 (Hs-578T): 65.6 µM (inactive)
GI50 (NCI-H226): > 100 µM (inactive)
GI50 (T47D): 68.9 µM (inactive)
GI50 (NCI-H522): > 100 µM (inactive)
GI50 (SK-MEL-5): > 100 µM (inactive)
GI50 (MCF7): > 100 µM (inactive)
GI50 (UO-31): > 100 µM (inactive)
GI50 (ACHN): > 100 µM (inactive)
GI50 (CAKI-1): > 100 µM (inactive)
GI50 (U-251): 41 µM (inactive)
GI50 (HCT-15): > 100 µM
GI50 (KM12): > 100 µM (inactive)
GI50 (OVCAR-3): 72.3 µM (inactive)
GI50 (M14): > 100 µM (inactive)
GI50 (Malme-3M): 63.1 µM (inactive)
GI50 (MDA-MB-231): 27 µM (inactive)
GI50 (SK-MEL-28): > 100 µM (inactive)
GI50 (MDA-MB-435): > 100 µM (inactive)
GI50 (SN12C): > 100 µM (inactive)
GI50 (UACC-257): > 100 µM (inactive)
GI50 (HOP-62): 37.5 µM (inactive)
GI50 (EKVX): 94.6 µM (inactive)
GI50 (HCC 2998): > 100 µM (inactive)
GI50 (TK-10): 81.3 µM (inactive)
GI50 (UACC-62): > 100 µM (inactive)
GI50 (LOX IMVI): > 100 µM (inactive)
GI50 (COLO 205): > 100 µM (inactive)
GI50 (RXF 393): 23.1 µM (inactive)
GI50 (MOLT-4): > 100 µM (inactive)
GI50 (NCI/ADR-RES): > 100 µM (inactive)
GI50 (SK-MEL-2): 39.2 µM (inactive)

COc1cc(O)c(C(=O)/C=C/c2ccc(O)cc2)cc1Oc1ccc(/C=C/C(=O)c2ccc(O)cc2O)cc1 [RHUSCHALCONE III]
GI50 (CCRF-CEM): 7.29 µM (inactive)
GI50 (PC-3): 7.21 µM (inactive)
GI50 (DU-145): 10.2 µM (inactive)
GI50 (K562): 9.75 µM (inactive)
GI50 (A498): 6.93 µM (inactive)
GI50 (NCI-H23): 11.1 µM (inactive)
GI50 (786-0): 8.73 µM (inactive)
GI50 (HT-29): 7.57 µM (inactive)
GI50 (HCT-116): 7.85 µM (inactive)
GI50 (SK-OV-3): 8.36 µM (inactive)
GI50 (BT-549): 8.79 µM (inactive)
GI50 (SF-268): 8.81 µM (inactive)
GI50 (HL-60): 10.4 µM (inactive)
GI50 (NCI-H460): 11.6 µM (inactive)
GI50 (SF-539): 8.89 µM (inactive)
GI50 (IGROV-1): 7.66 µM (inactive)
GI50 (SW-620): 11.2 µM (inactive)
GI50 (OVCAR-5): 13.7 µM (inactive)
GI50 (SNB-19): 12.9 µM (inactive)
GI50 (MDA-N): 8.93 µM (inactive)
GI50 (SNB-75): 12.6 µM (inactive)
GI50 (A549): 14.8 µM (inactive)
GI50 (OVCAR-4): 8.07 µM (inactive)
GI50 (SF-295): 10.1 µM (inactive)
GI50 (RPMI-8226): 6.79 µM (inactive)
GI50 (OVCAR-8): 9.02 µM (inactive)
GI50 (SR): 5.01 µM (inactive)
GI50 (HOP-92): 11.4 µM (inactive)
GI50 (Hs-578T): 14.4 µM (inactive)
GI50 (T47D): 15.3 µM (inactive)
GI50 (NCI-H522): 7.41 µM (inactive)
GI50 (SK-MEL-5): 7.36 µM (inactive)
GI50 (MCF7): 8.69 µM (inactive)
GI50 (UO-31): 9.48 µM (inactive)
GI50 (ACHN): 8.75 µM (inactive)
GI50 (CAKI-1): 14.2 µM (inactive)
GI50 (U-251): 7.98 µM (inactive)
GI50 (HCT-15): 8.85 µM
GI50 (KM12): 6.75 µM (inactive)
GI50 (OVCAR-3): 8.07 µM (inactive)
GI50 (M14): 9.62 µM (inactive)
GI50 (Malme-3M): 8.38 µM (inactive)
GI50 (MDA-MB-231): 15 µM (inactive)
GI50 (SK-MEL-28): 8.41 µM (inactive)
GI50 (MDA-MB-435): 8.77 µM (inactive)
GI50 (SN12C): 8.81 µM (inactive)
GI50 (UACC-257): 10.1 µM (inactive)
GI50 (HOP-62): 10.8 µM (inactive)
GI50 (EKVX): 13 µM (inactive)
GI50 (TK-10): 9.79 µM (inactive)
GI50 (UACC-62): 8.61 µM (inactive)
GI50 (LOX IMVI): 8.45 µM (inactive)
GI50 (COLO 205): 8.43 µM (inactive)
GI50 (RXF 393): 8.2 µM (inactive)
GI50 (MOLT-4): 11.3 µM (inactive)
GI50 (NCI/ADR-RES): 10.1 µM (inactive)
GI50 (SK-MEL-2): 10.1 µM (inactive)
